How the values were obtained:
[1] = target: human GOAT (Homo sapiens (Human), UniProt Q96T53); assay: In vitro cell free human GOAT enzymatic assay; format: biochemical; conditions: purified GOAT enzyme, ELISA readout of acyl-ghrelin
Procedure: In Vitro Cell Free Human GOAT Enzymatic Assay
Human GOAT gene (Accession number: NM 001100916) is subcloned to pAN51 baculoviral expression vector. Baculovirus stock is prepared following the Bac-to-Bac Protocol provided by the vendor, Invitrogen, California, USA. Five mililiters of human GOAT baculoviral stock are added to 500 mL SDf cells in HyQ SFX-Insect™ media (HyClone catalog number SF130278.02) at the density of 1×10^6 cells per milliliter in a 2 L Erlenmeyer flask. The flask with human GOAT gene infected Sf9 cells is put on a plate shaker at 120 rpm at 28° C. for 48 hours. After 48 hours incubation, cells are centrifuged at 1,000×g for 10 min at 4° C. The cell pellets are collected and stored at −80° C. in a freezer until ready for further processing.
Preparation of Microsomal Membrane of GOAT Enzyme for the Enzymatic Assay:
One gram cell pellets are suspended in 9 mL chilled homogenization buffer (50 mM Tris-HCl, 250 mM sucrose, adjusted to pH 7.5 and sterile filtered through 0.2 μm Millipore filter). The cell suspension is transferred to a Dounce glass homogenizer. Cell pellets are homogenized with 40 strokes on ice. The homogenate is centrifuged at 3,000 rpm in a Beckman swing bucket rotor at 4° C. for 10 min to remove unbroken cells. The supernatant is collected and centrifuged at 40,000×g for 1 hour at 4° C. The resulting membrane pellet is suspended in the homogenization buffer using a Dounce glass homogenizer and stored at −20° C. in the freezer for the assay. For long term storage of the human GOAT enzyme membrane preparation, the suspended membrane is stored in a −80° C. freezer.
Human GOAT Enzymatic Assay Protocol:
Prepare test compounds in DMSO to make up a 0.2 mM stock solution. Serially dilute the stock solution in DMSO to obtain a ten-point dilution curve with final compound concentrations ranging from 10 μM to 0.5 nM in a 96-well round-bottom plate. Prepare enzyme and substrate solutions in assay buffer (0.02% TWEEN™-20 in 50 mM Tris, pH 7.5/250 mM sucrose/1 mg/mL BSA/10 mM EDTA). Add diluted compound (1 μL) to each well of row A to N of a corresponding low protein binding 384 well plate. Add human GOAT substrate mix (10 μL), consisting of human desacyl-ghrelin-biotin (CPC Scientific Inc., 6.0 μM final), octanoyl-coenzyme A (CoA) (Sigma, 60 μM final) and an AG specific antibody (WO 2006/091381)([…] final), to the compounds. Add GOAT-His/sf9 enzyme preparation, that has been prepared in assay buffer (9 μL), to each well of the plate containing substrate and test compounds resulting in a final concentration of 0.01 μg/mL to initiate the reaction. Incubate the mixture for 1 hour at RT on a gently rotating oscillator. Add 4M guanidine hydrochloride (20 μL) to all wells, mix, and incubate for 3 hours to stop the reaction.
Prepare ELISA plates (STREPTAVIDIN SPECTRAPLATE™ 384, Perkin Elmer) by blocking with 2% Heat-Inactivated FBS in PBS (40 μL) (Invitrogen) blocking buffer for 3 hours. Aspirate the blocking buffer from ELISA plate and add blocking buffer (23 μL) to columns 1-24, rows A-N. Reserve rows O and P for the acylghrelin standard curve. Add the reaction mix (2 μL) to the ELISA plates. Prepare a 10 point standard curve (biotin-labeled octanoyl-ghrelin) by serial 2× dilution in blocking buffer containing 0.2M Guanidine hydrochloride starting at 2.5 pM. Incubate the reaction mixture or biotin-labeled AG standard in the ELISA plate overnight at 4° C. […]

[2] = target: GOAT (Mus musculus (Mouse), UniProt P0C7A3); assay: In vivo dose dependent 3 day BID study for GOAT inhibitor (plasma AG and UAG by ELISA); parameters: species or system male C57BL/6 mice; conditions: mice, 3 days; for reduction in AG to total ghrelin ratio: compared to vehicle-treated control animals; for decrease of plasma AG / increase of UAG: vs vehicle; for AG (% of control) / AG/Total-ghrelin (% of vehicle control) / UAG (% of vehicle control) / increase of UAG: plasma
Chain of GOAT (P0C7A3 whole entry): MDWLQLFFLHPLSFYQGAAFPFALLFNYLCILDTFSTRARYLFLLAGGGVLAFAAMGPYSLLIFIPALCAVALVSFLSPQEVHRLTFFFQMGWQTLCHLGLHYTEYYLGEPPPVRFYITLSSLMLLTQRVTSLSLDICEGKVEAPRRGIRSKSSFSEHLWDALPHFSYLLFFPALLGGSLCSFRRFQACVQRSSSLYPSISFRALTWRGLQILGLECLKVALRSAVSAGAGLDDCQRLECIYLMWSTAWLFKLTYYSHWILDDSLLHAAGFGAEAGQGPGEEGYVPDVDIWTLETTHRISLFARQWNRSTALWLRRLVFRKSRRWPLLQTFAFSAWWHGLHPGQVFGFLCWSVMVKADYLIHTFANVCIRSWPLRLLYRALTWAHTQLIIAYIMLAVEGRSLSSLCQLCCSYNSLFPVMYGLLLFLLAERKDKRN
Procedure: Comparing the change in the ratio of AG to total ghrelin in the compound treated group and that of the vehicle treated group reflects the degree of GOAT enzyme inhibition in vivo, due to the dynamic processing of UAG to AG by the GOAT enzyme. In the in vivo pharmacodynamic studies herein, the levels of AG and UAG in plasma and stomach in the vehicle and compound treated groups are measured by ELISA specifically to these two analytes. The total ghrelin level of each sample is computed as the sum of AG and UAG by these ELISA measurements. The ratio of AG to total ghrelin is defined by the level of AG in each sample divided by the level of total ghrelin in the same sample. The levels of AG, UAG and ratio of AG to total ghrelin in the vehicle treated group is computed and set as 100%. The relative change of these parameters in the compound treated group is then computed to determine the effectiveness of the test compound.
In Vivo Dose Dependent 3 Day BID Study for GOAT Inhibitor:E
Purchase male C57BL/6 mice from Harlaan (Indianapolis, Ind.) at 9 weeks of age. House the mice individually in a temperature-controlled (24° C.) facility with a 12 hours light/dark cycle (lights on 2200 h), and allow free access to a standard rodent chow (diet 2014, Harlan) and water. Typically, use the mice when they are 10-13 weeks of age at the time of the study. On day 0 of the experiment, randomize the mice into treatment groups (N=7/group) so each group has similar mean body weights. On day 1 and day 2, treat the animals with vehicle (1% hydroxyethylcellulose, 0.25% TWEEN™ 80, 0.05% antifoam) or test compound prepared in the vehicle as suspension at various dosages by oral gavage at 7 am and 7 pm. On day 3, fast the animals, move them into clean cages and dose with vehicle or the test compound again at 8 am by oral gavage. That same day at 1 pm, sacrifice the animals by decapitation to collect blood. For details of blood collection and plasma treatments see Blood collection and Extraction of Ghrelin from Plasma section below.
Collect approximately 600 μL blood into a pre-weighed EDTA tube containing 600 μL (defined as Vpreservative) freshly-prepared preservative (4 mM PEFABLOC® [4-(2-aminoethyl) benzenesulfonyl fluoride hydrochloride], 72 mM NaCl, 58 mM NaF, 0.032 N hydrochloric acid, pH 3.0) and mix immediately. Weigh the tube again and keep on ice. To accurately determine the exact blood volume of each sample using this blood collection procedure, the weight of the blood for each mouse is computed using the following equation: Weight of Blood=(Weight of the tube containing Blood+preservative)−(Weight of the tube containing preservative) Blood volume (Vblood)=(Weight of blood)/1.06
Note, the density of rodent blood is assumed as 1.06 g/mL.
Within 15 minutes after the blood collection, samples are centrifuged at 5000 rpm at 4° C. for 8 min. Remove plasma (650 μL) to a 5 mL glass tube containing 1 N hydrochloric acid (65 μL), mix and keep on ice.
Ghrelin Extraction by SEP-PAK® Column:
AG and UAG are extracted from plasma using SEP-PAK®_C18 column to remove interference prior to performing the ELISA. The solid phase extraction of AG and UAG peptides by SEP-PAK®_C18 columns can be performed on a vacuum manifold (Waters Corp) or using a peristaltic pump. The sample SEP-PAK®_column extraction procedure is independently applied to the plasma sample obtained from each individual mouse. The general extraction protocol is described as follows.
All solutions used for the entire protocol of the SEP-PAK® column extraction should be at ice cold condition. Wet SEP-PAK®_columns (WAT054960, Waters Corp, Milford Mass.) with 99.9% ACN/0.1% TFA (1 mL of solution of 100 mL ACN/0.1 mL TFA). […] Once liquid is removed from the column, stop the pressure. Equilibrate the columns with 3% ACN/0.1% TFA (I mL of 97 mL water, 3 mL ACN, 0.1 mL TFA). […] Dilute approximately 650 μL acidified plasma (defined as Vplasma added to column) to 1.4 mL ice cold 0.1% TFA. […]

Chain of human GOAT (Q96T53 whole entry): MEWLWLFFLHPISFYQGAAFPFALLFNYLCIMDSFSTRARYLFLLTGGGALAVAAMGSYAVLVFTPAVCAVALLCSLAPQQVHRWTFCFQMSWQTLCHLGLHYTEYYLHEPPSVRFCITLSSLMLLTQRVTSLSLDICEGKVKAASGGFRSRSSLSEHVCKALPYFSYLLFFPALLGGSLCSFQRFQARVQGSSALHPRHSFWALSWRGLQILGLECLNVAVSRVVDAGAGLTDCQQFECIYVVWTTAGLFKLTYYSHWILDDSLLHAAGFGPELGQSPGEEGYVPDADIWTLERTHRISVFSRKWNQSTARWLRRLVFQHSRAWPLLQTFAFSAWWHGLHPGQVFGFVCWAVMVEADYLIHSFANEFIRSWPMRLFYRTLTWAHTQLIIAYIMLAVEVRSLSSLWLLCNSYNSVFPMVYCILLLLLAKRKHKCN

Cc1nc(C(F)(F)F)nc(N)c1CCC1CCN(C(=O)[C@H](C)NC(=O)c2ccnn2C)CC1 [Example 2, N-[(1 S)-2-[4-[2-[4-Amino-6-methyl-2-(trifluoromethyl)pyrimidin-5-yl]ethyl]-1-piperidyl]-1-methyl-2-oxo-ethyl]-2-methyl-pyrazole-3-carboxamide]
IC50 [1]: 69.5 ± 0.6 nM | reduction in AG to total ghrelin ratio ([2]; 0.1 mg/kg): 57% | decrease of plasma AG ([2]; 0.1 mg/kg): 40% | reduction in AG to total ghrelin ratio ([2]; 0.3 mg/kg): 62% | decrease of plasma AG ([2]; 0.3 mg/kg): 60% | reduction in AG to total ghrelin ratio ([2]; 1 mg/kg): 79% | decrease of plasma AG ([2]; 1 mg/kg): 56% | reduction in AG to total ghrelin ratio ([2]; 3 mg/kg): 82% | decrease of plasma AG ([2]; 3 mg/kg): 63% | reduction in AG to total ghrelin ratio ([2]; 10 mg/kg): 82% | decrease of plasma AG ([2]; 10 mg/kg): 63% | AG (% of control) ([2]; 0.1 mg/kg oral gavage BID): 60 ± 8 (n = 7) % of control | AG/Total-ghrelin (% of vehicle control) ([2]; 0.1 mg/kg oral gavage BID): 43 ± 3 (n = 7) % of vehicle control | UAG (% of vehicle control) ([2]; 0.1 mg/kg oral gavage BID): 210 ± 43 (n = 7) % of vehicle control | increase of UAG ([2]; 0.1 mg/kg): 2.10 fold | AG (% of control) ([2]; 0.3 mg/kg oral gavage BID): 40 ± 10 (n = 7) % of control | AG/Total-ghrelin (% of vehicle control) ([2]; 0.3 mg/kg oral gavage BID): 28 ± 1 (n = 7) % of vehicle control | UAG (% of vehicle control) ([2]; 0.3 mg/kg oral gavage BID): 222 ± 54 (n = 7) % of vehicle control | increase of UAG ([2]; 0.3 mg/kg): 2.22 fold | AG (% of control) ([2]; 1 mg/kg oral gavage BID): 44 ± 6 (n = 14) % of control | AG/Total-ghrelin (% of vehicle control) ([2]; 1 mg/kg oral gavage BID): 21 ± 1 (n = 14) % of vehicle control | UAG (% of vehicle control) ([2]; 1 mg/kg oral gavage BID): 357 ± 30 (n = 14) % of vehicle control | increase of UAG ([2]; 1 mg/kg): 3.57 fold | AG (% of control) ([2]; 3 mg/kg oral gavage BID): 37 ± 9.6 (n = 14) % of control | AG/Total-ghrelin (% of vehicle control) ([2]; 3 mg/kg oral gavage BID): 18 ± 5 (n = 14) % of vehicle control | UAG (% of vehicle control) ([2]; 3 mg/kg oral gavage BID): 349 ± 41 (n = 14) % of vehicle control | increase of UAG ([2]; 3 mg/kg): 3.49 fold | AG (% of control) ([2]; 10 mg/kg oral gavage BID): 37 ± 9.9 (n = 7) % of control | AG/Total-ghrelin (% of vehicle control) ([2]; 10 mg/kg oral gavage BID): 18 ± 3 (n = 7) % of vehicle control | UAG (% of vehicle control) ([2]; 10 mg/kg oral gavage BID): 378 ± 59 (n = 7) % of vehicle control | increase of UAG ([2]; 10 mg/kg): 3.78 fold

Cc1nc(C(F)(F)F)nc(N)c1CCC1CCN(C(=O)[C@H](C)NC(=O)CO)CC1 [Example 18, N-[(1S)-2-[4-[2-[4-Amino-6-methyl-2-(trifluoromethyl)pyrimidin-5-yl]ethyl]-1-piperidyl]-1-methyl-2-oxo-ethyl]-2-hydroxy-acetamide]
IC50 [1]: 276 nM

COC(=O)N[C@@H](C)C(=O)N1CCC(CCc2c(C)nc(C(F)(F)F)nc2N)CC1 [Example 20, Methyl-[(1S)-2-[4-[2-[4-amino-6-methyl-2-(trifluoromethyl)pyrimidin-5-yl]ethyl]-1-piperidyl]-1-methyl-2-oxo-ethyl]carbamate]
IC50 [1]: 615 nM

COc1ccccc1C(=O)N[C@@H](C)C(=O)N1CCC(CCc2c(C)nc(C(F)(F)F)nc2N)CC1 [Example 17, N-[(1S)-2-[4-[2-[4-Amino-6-methyl-2-(trifluoromethyl)pyrimidin-5-yl]ethyl]-1-piperidyl]-1-methyl-2-oxo-ethyl]-2-methoxy-benzamide]
IC50 [1]: 420 nM

Cc1nc(C(F)(F)F)nc(N)c1CCC1CCN(C(=O)[C@H](C)NC(=O)c2nccnc2Cl)CC1 [Example 15, N-[(1S)-2-[4-[2-[4-Amino-6-methyl-2-(trifluoromethyl)pyrimidin-5-yl]ethyl]-1-piperidyl]-1-methyl-2-oxo-ethyl]-3-chloro-pyrazine-2-carboxamide]
IC50 [1]: 55.7 nM
